Here are results for two molecules from patent publication US6946132B2, “Vaccine compositions and methods useful in inducing immune protection against arthritogenic peptides involved in the pathogenesis of rheumatoid arthritis” (The Regents of the University of California, priority 1994, dated 2005).

The test system of test [1] is lymphocytes from patients with early stage RA. In words: Proliferation of lymphocytes from RA patients exposed to RA susceptibility sequence peptides (stimulation index). It is filed as cell-based, human. To be noted: for response of RA patient blood lymphocytes to wild-type peptide (dnaJp1) relative to response to mutant peptide (dnaJpV): PBL's of RA patients. From the text:
FIG. 2 quantifies proliferation of cultured lymphocytes from adult RA and juvenile RA (JRA) patients following exposure of the cells to synthetic dnaJp1 (amino acid sequence […]; SEQ. ID. No. 4) or a mutant dnaJ peptide having the amino acid sequence […] (“dnaJpV”; SEQ. ID. No. 5). The control culture tested consisted of lymphocytes obtained from adults without RA (“normals”). The responses shown by bars in the graph of FIG. 2 are expressed in terms of a lymphocyte stimulation index; i.e., (CPM detected in cultures with dnaJ)/(CPM detected in cultures without dnaJ).
(§1) Lymphocytes from patients with early untreated rheumatoid arthritis (RA) were obtained from blood (peripheral blood lymphocytes, or “PBL's”) for from synovial fluids using standard aseptic techniques. The cells were incubated for 7 days with purified recombinant E. coli dnaJ (10 μg/ml, obtained as described in Example I) in RPMI 1640 medium supplemented with 10% prescreened human AB type serum. Lymphocytes from 10 control subjects (i.e., persons without RA) were treated similarly. Proliferation during the last 16 hours of culture was expressed as a stimulation index=cpm in cultures with dnaJ/cpm in cultures without dnaJ.
Lymphocytes from patients with early stage RA were contacted with one of two RA susceptibility sequence peptides according to the protocol described in Example II. The peptides used were either a 15 amino acid synthetic peptide having the wild-type sequence […] or a 15 amino acid synthetic mutant peptide having the sequence […].

For test [2], the system named is purified HLA MHC Class II epitopes. In words: ELISA binding of biotinylated dnaJ peptides to immobilized HLA molecules. Further details: species or system human. Conditions: ELISA absorption at 405 nm; FIG. 5. From the text: FIG. 5 is a table comparing the binding efficiencies of several dnaJ peptides for purified HLA MHC Class II epitopes. Binding was detected by ELISA between biotinylated dnaJ peptides and immobilized HLA molecules. The results are expressed in the table as absorption units at 405 nm. The peptides tested were: dnaJp1 (SEQ. ID. No. 4), dnaJpV (SEQ. ID. No. 5), dnaJp2 (SEQ. ID. No. 6), S1 (SEQ. ID. No. 7) and S6 (SEQ. ID. No. 8). S1 and […] are synthetic peptides whose amino acid sequence corresponds to the sequence of known HLA DR antigens.
On the technique in general: An ELISA detects its analyte on a solid surface through an enzyme-linked reagent.

Test [3] relates to anti-dnaJ antibodies in sera from patients with early stage RA. Put plainly: Inhibition of antibody binding to dnaJ (ELISA, sera preincubated with peptide). Also on record: species or system human. To be noted: sera diluted 1:100, preincubated overnight at 4° C. with peptide; % inhibition; FIG. 3. Here is the method:
FIG. 3 depicts the results of an inhibition study for inhibition of the activity of anti-dnaJ antibodies produced in separate sera samples from 51 early stage RA patients by intact dnaJ. The percent inhibition shown by bars in the graph of FIG. 3 is expressed in terms of the formula: % inhibition=100 I-OD460 with rdnaJ)(OD460 without rdnaJ) The control sera were obtained from humans without RA.
Microtiter plates were coated with recombinant dnaJ (10 μg/ml). Either sera obtained from patients with early stage RA or sera from control subjects were diluted 1:100 in borate buffered saline. Half of each specimen was incubated overnight at 4° C. with the wild-type dnaJ peptide described in Example III. Then the paired serum specimens were added to the dnaJ coated plates.
After 4 hours incubation, antibody binding was detected with alkaline phosphatase labelled goat anti-human IgG; levels of detected antibody binding were determined according to the following formula: % inhibition=100 (1-OD460with wild-type peptide)(OD460without wild-type peptide)

The subject of test [4] is lymphocytes from patients with early untreated rheumatoid arthritis. In words: Proliferation of lymphocytes from early stage RA patients exposed to rdnaJ (stimulation index). It is filed as cell-based, human. Conditions: rdnaJ 10 μg/ml, 7 days, FIG. 1.
Text: FIG. 1 quantifies proliferation of cultured lymphocytes from 22 patients with early, untreated RA (“early stage” RA) following exposure of the cells to intact bacterial dnaJ protein. The responses shown by bars in the graph of FIG. 1 are expressed in terms of a lymphocyte stimulation index; i.e., (CPM detected in cultures with dnaJ)/(CPM detected in cultures without dnaJ). “CPM” refers to counts-per-minute. The control culture tested consisted of lymphocytes obtained from humans without RA.
as §1

Take QKRAAYDQYGHAAFE (Synthetic dnaJp1): in test [1] (FIG. 2), the “response of RA patient PBL's to wild-type peptide relative to response of lymphocytes from control subjects to wild-type peptide” value is recorded as “approximately 9 times” and the “response of RA patient blood lymphocytes to wild-type peptide (dnaJp1) relative to response to mutant peptide (dnaJpV)” value is on record as around 10 times. Moreover, the “response of RA patient blood lymphocytes to wild-type peptide (dnaJp1) relative to response to mutant peptide (dnaJpV)” value in test [1] (FIG. 2, listed as wild-type peptide) is given as “more than 5 times”. In test [2], the “binding to HLA MHC Class II molecule epitopes relative to human HLA Dw4 peptides (S1 and S6)” value is at least 100 times. For the same molecule, the “inhibition of antibody binding to rdnaJ in RA sera relative to inhibition in control sera” value in test [3] is reported as around 3 times.

B1: rdnaJ: recombinant E. coli dnaJ heat shock protein, expressed and affinity purified, 41 kD (protein, UniProt P08622 2-376, looked up)
Chaperone protein DnaJ: AKQDYYEILGVSKTAEEREIRKAYKRLAMKYHPDRNQGDKEAEAKFKEIKEAYEVLTDSQKRAAYDQYGHAAFEQGGMGGGGFGGGADFSDIFGDVFGDIFGGGRGRQRAARGADLRYNMELTLEEAVRGVTKEIRIPTLEECDVCHGSGAKPGTQPQTCPTCHGSGQVQMRQGFFAVQQTCPHCQGRGTLIKDPCNKCHGHGRVERSKTLSVKIPAGVDTGDRIRLAGEGEAGEHGAPAGDLYVQVQVKQHPIFEREGNNLYCEVPINFAMAALGGEIEVPTLDGRVKLKVPGETQTGKLFRMRGKGVKSVRGGAQGDLLCRVVVETPVGLNERQKQLLQELQESFGGPTGEHNSPRSKSFFDGVKKFFDDLTR
For the molecule B1, the “proliferation response of PBL's relative to response of control subject lymphocytes” value in test [4] (PBL's from 14 early stage RA patients) is listed as “approximately 3.6 times”. Moreover, the “proliferation response of synovial fluid lymphocytes relative to response of control subject lymphocytes” value in test [4] (synovial fluid lymphocytes from 8 early stage RA patients) was “approximately 2.3 times”.
